Laboratory results as given in patent publication US20180371044A1, “PEPTIDOMIMETIC MACROCYCLES” (Aileron Therapeutics, Inc., priority 2015, published 2018).
pEC50: −log10 of the molar value. Where a SMILES comes first, the peptide text is derived from it. Bridges are numbered along the chain shown (N, C = ends). [ ]: non-standard residue; d: D form. The star is where a group is joined. Decanoyl(3,6,9-trioxa) = COCCOCCOCC(=O)*; NMeY = CN[C@@H](Cc1ccc(O)cc1)C(=O)O; R8 = C=CCCCCCC[C@@](C)(N)C(=O)O; S5 = C=CCCC[C@](C)(N)C(=O)O; Nle = CCCC[C@H](N)C(=O)O

Assays:
[1] = target: T1, human GHRH receptor (hGHRHR) (Homo sapiens, UniProt Q02643); test: GHRHR agonism measured by cAMP (HTRF) in human 293 cells expressing hGHRHR; format: cell-based; conditions: 30 min at RT;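 further: receptor expressed transiently or stably, cells stimulated in serum-free medium, EC50 from a non-linear dose-response fit, maximal response defined by reference GHRH stimulation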
T1 construct: expressed in transfected cells; host or cells: Human 293 cells
T1 sequence (Q02643 23-423): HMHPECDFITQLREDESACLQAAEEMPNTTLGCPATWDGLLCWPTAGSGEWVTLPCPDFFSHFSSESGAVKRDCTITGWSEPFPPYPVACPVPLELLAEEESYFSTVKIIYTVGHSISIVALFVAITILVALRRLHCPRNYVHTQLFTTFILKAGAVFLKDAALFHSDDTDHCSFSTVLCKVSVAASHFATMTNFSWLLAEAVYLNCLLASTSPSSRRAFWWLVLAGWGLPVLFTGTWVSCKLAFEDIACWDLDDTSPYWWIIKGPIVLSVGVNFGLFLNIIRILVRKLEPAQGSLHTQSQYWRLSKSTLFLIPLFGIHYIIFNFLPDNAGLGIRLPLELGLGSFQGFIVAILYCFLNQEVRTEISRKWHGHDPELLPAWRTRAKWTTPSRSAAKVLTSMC

[2] = Plasma PK/PD study in rats; format: in vivo, rat; conditions: male Sprague-Dawley rats; for MRT / clearance / Vd / half-life / AUC(0-inf): rat, 3 mg/kg; for clearance: read-out: Clp (converted); for Vd: read-out: Vdss; for half-life: read-out: t ½ (converted); for AUC(0-inf): route not given
Description: Five peptidomimetic macrocycles of the invention, as well as sermorelin, were studied to determine pharmacokinetic and pharmacodynamic parameters in rats. Male Sprague-Dawley rats (300 g, non-fasted, cannulated) were used. The study had three arms: IV administration, SC administration, and SC administration (vehicle control). For experiments using sermorelin, a dose level of 3 mg/kg IV/SC bolus was used (dose volume of […] dose and dose concentration of 1 mg/mL). The vehicle used was: 10 wt % N, N-Dimethylacetamide, 10 wt % DMSO, 2 wt % Solutol HS 15 in water for injection containing 45 mg/mL (4.5 wt %) Mannitol and 25 mM (0.38 wt %) Histidine (pH 7.5; 320 mOsm/kg). The peptide was first dissolved at high concentration in DMA and DMSO before a second dilution in Solutol vehicle.
For experiments using peptidomimetic macrocycles, 0.1 mL of DMA and 0.1 mL of DMSO were used to combine with each mg of macrocycle (˜4.3-4.5 mg of macrocycle used in each experiment). Sonication was used to ensure complete solubilization. 0.8 mL of Solutol vehicle was used for each mg of macrocycle in DMA/DMSO. The solutions were mixed gently with pipet or light vortexing. Fresh vials were used for each day of dosing, and macrocycles were stored solid at −20° C. prior to formulation.
For each study arm, 2 rats were bled (350 μL) at specific time points (5 min, 15 min, 30 min, 1 h, 2 h, 4 h, 8 h, 24 h, and 48 h) and a 150 μL bleed was performed just before dosing. Plasma was prepared into K2EDTA tubes by centrifuging for 20 minutes at 4° C. at 2000G maximum 30 minutes after collection. From each 350 μL bleed, 120 μL were transferred to one tube for PK studies and 50 μL to another tube for PD studies and frozen immediately. From the 150 μL bleed, 70 μL were transferred to one tube for PD studies and frozen immediately.

Plasma compatibility = format: physicochemical
Description: The plasma compatibility of exemplary peptidomimetic macrocycles was also determined. Peptidomimetic macrocycles with a plasma compatability value (PC) that is greater than 0.1 were determined as being plasma compatible.

Structure (SMILES) | pEC50 [1] | AUC Ext (%) [2] [%] | MRT [2] [h] | clearance [2] [mL/min/kg] | Vd [2] [L/kg] | half-life [2] [h] | AUC(0-inf) [2] [ng·h/mL] | Plasma Compatability (Plasma compatibility) [mg/mL]
CCCC[C@H](NC(=O)[C@@H](NC(=O)[C@H](CC(=O)O)NC(=O)[C@H](CCC(N)=O)NC(=O)[C@H](CC(C)C)NC(=O)[C@H](C)NC(=O)[C@H](CCCCN)NC(=O)[C@H](CCCNC(=N)N)NC(=O)[C@H](C)NC(=O)[C@H](CO)NC(=O)[C@H](CC(C)C)NC(=O)[C@H](CCC(N)=O)NC(=O)[C@H](C)NC(=O)[C@H](CC(C)C)NC(=O)[C@@H](NC(=O)[C@H](CCCCN)NC(=O)[C@H](CCCNC(=N)N)NC(=O)[C@H](Cc1ccc(O)cc1)NC(=O)[C@H](CO)NC(=O)[C@H](C)NC(=O)[C@@H](NC(=O)[C@H](Cc1ccccc1)NC(=O)[C@@H](NC(=O)[C@]1(C)CCCC=CCCC[C@](C)(N)C(=O)N[C@@H](Cc2ccc(O)cc2)C(=O)N[C@@H](C)C(=O)N[C@@H](CC(=O)O)C(=O)N1)[C@@H](C)CC)[C@@H](C)O)C(C)C)[C@@H](C)CC)C(=O)N[C@@H](CO)C(=O)N[C@@H](CCCNC(=N)N)C(N)=O [SP-6] (H-[S5]YAD[S5]IFTASYRKVLAQLSARKALQDI[Nle]SR-NH2; staple 1-5) | 7.30 to 7.60 | 16.3 | 3.7 | 2.13 | 0.474 | 20.6 | 23500 | –
CCCC[C@H](NC(=O)[C@@H](NC(=O)[C@H](CC(=O)O)NC(=O)[C@H](CCC(N)=O)NC(=O)[C@H](CC(C)C)NC(=O)[C@H](C)NC(=O)[C@H](CCCCN)NC(=O)[C@H](CCCNC(=N)N)NC(=O)[C@H](C)NC(=O)[C@H](CO)NC(=O)[C@]1(C)CCCC=CCCC[C@](C)(NC(=O)[C@H](CCCCN)NC(=O)[C@H](CCCNC(=N)N)NC(=O)[C@H](Cc2ccc(O)cc2)NC(=O)[C@H](CO)NC(=O)[C@H](C)NC(=O)[C@@H](NC(=O)[C@H](Cc2ccccc2)NC(=O)[C@@H](NC(=O)[C@H](C)NC(=O)[C@H](CC(=O)O)NC(=O)[C@@H](C)NC(=O)[C@H](Cc2ccc(O)cc2)NC(=O)COCCOCCOC)[C@@H](C)CC)[C@@H](C)O)C(=O)N[C@@H](CC(C)C)C(=O)N[C@@H](C)C(=O)N[C@@H](CCC(N)=O)C(=O)N1)[C@@H](C)CC)C(=O)N[C@@H](CO)C(=O)N[C@@H](CCCNC(=N)N)C(N)=O [SP-135] ({Decanoyl(3,6,9-trioxa)}-Y[dA]DAIFTASYRK[S5]LAQ[S5]SARKALQDI[Nle]SR-NH2; staple 13-17; N-terminus and C-terminus assumed) | – | – | – | – | – | – | – | 1.6
CCCC[C@H](NC(=O)[C@@H](NC(=O)[C@H](CC(=O)O)NC(=O)[C@H](CCC(N)=O)NC(=O)[C@H](CC(C)C)NC(=O)[C@H](C)NC(=O)[C@H](CCCCN)NC(=O)[C@H](CCCNC(=N)N)NC(=O)[C@H](C)NC(=O)[C@H](CO)NC(=O)[C@]1(C)CCCC=CCCC[C@](C)(NC(=O)[C@H](CCCCN)NC(=O)[C@H](CCCNC(=N)N)NC(=O)[C@H](Cc2ccc(O)cc2)NC(=O)[C@H](CO)NC(=O)[C@H](CCC(N)=O)NC(=O)[C@@H](NC(=O)[C@H](Cc2ccccc2)NC(=O)[C@@H](NC(=O)[C@H](C)NC(=O)[C@H](CC(=O)O)NC(=O)[C@@H](C)NC(=O)[C@@H](N)Cc2ccc(O)cc2)[C@@H](C)CC)[C@@H](C)O)C(=O)N[C@@H](CC(C)C)C(=O)N[C@@H](C)C(=O)N[C@@H](C)C(=O)N1)[C@@H](C)CC)C(=O)N[C@@H](CO)C(=O)N[C@@H](CCCNC(=N)N)C(N)=O [SP-104] (H-Y[dA]DAIFTQSYRK[S5]LAA[S5]SARKALQDI[Nle]SR-NH2; staple 13-17) | – | – | – | – | – | – | – | 1.2

Other lines, results leading:

pEC50 [1] | AUC Ext (%) [2] [%] | MRT [2] [h] | clearance [2] [mL/min/kg] | Vd [2] [L/kg] | half-life [2] [h] | AUC(0-inf) [2] [ng·h/mL] | Plasma Compatability (Plasma compatibility) [mg/mL] | Structure (SMILES)
– | 9.4 | 5.3 | 1.65 | 0.524 | 10.1 | 30500 | – | CCCC[C@@H]1NC(=O)[C@H]([C@@H](C)CC)NC(=O)[C@H](CC(=O)O)NC(=O)[C@@](C)(NC(=O)[C@H](CC(C)C)NC(=O)[C@H](C)NC(=O)[C@H](CCCCN)NC(=O)[C@H](CCCNC(=N)N)NC(=O)[C@H](C)NC(=O)[C@H](CO)NC(=O)[C@H](CC(C)C)NC(=O)[C@H](CCC(N)=O)NC(=O)[C@H](C)NC(=O)[C@H](CC(C)C)NC(=O)[C@@H](NC(=O)[C@H](CCCCN)NC(=O)[C@H](CCCNC(=N)N)NC(=O)[C@H](Cc2ccc(O)cc2)NC(=O)[C@H](CO)NC(=O)[C@H](C)NC(=O)[C@@H](NC(=O)[C@H](Cc2ccccc2)NC(=O)[C@@H](NC(=O)[C@H](C)NC(=O)[C@H](CC(=O)O)NC(=O)[C@H](C)NC(=O)[C@H](Cc2ccc(O)cc2)NC)[C@@H](C)CC)[C@@H](C)O)C(C)C)CCCC=CCCC[C@@](C)(C(=O)N[C@@H](CCCNC(=N)N)C(N)=O)NC1=O [SP-21] (H-[NMeY]ADAIFTASYRKVLAQLSARKAL[S5]DI[Nle][S5]R-NH2; staple 24-28; N-terminus and C-terminus assumed)
– | – | – | – | – | – | – | 1.6 | CCCC[C@H](NC(=O)[C@@H](NC(=O)[C@H](CC(=O)O)NC(=O)[C@H](CCC(N)=O)NC(=O)[C@H](CC(C)C)NC(=O)[C@H](C)NC(=O)[C@H](CCCCN)NC(=O)[C@H](CCCNC(=N)N)NC(=O)[C@H](C)NC(=O)[C@H](CO)NC(=O)[C@]1(C)CCCC=CCCC[C@](C)(NC(=O)[C@H](CCCCN)NC(=O)[C@H](CCCNC(=N)N)NC(=O)[C@H](Cc2ccc(O)cc2)NC(=O)[C@H](CO)NC(=O)[C@H](CCC(N)=O)NC(=O)[C@@H](NC(=O)[C@H](Cc2ccccc2)NC(=O)[C@@H](NC(=O)[C@H](C)NC(=O)[C@H](CC(=O)O)NC(=O)[C@@H](C)NC(=O)[C@@H](N)Cc2ccc(O)cc2)[C@@H](C)CC)[C@@H](C)O)C(=O)N[C@@H](CC(C)C)C(=O)N[C@@H](C)C(=O)N[C@@H](CCC(N)=O)C(=O)N1)[C@@H](C)CC)C(=O)N[C@@H](CO)C(=O)N[C@@H](CCCNC(=N)N)C(N)=O (single isomer, unassigned) [SP-107]
– | 3.0 | 2.3 | 1.35 | 0.19 | 9.7 | 37000 | – | CCCC[C@@H]1NC(=O)[C@H]([C@@H](C)CC)NC(=O)[C@H](CC(=O)O)NC(=O)[C@H](CCC(N)=O)NC(=O)[C@H](CC(C)C)NC(=O)[C@H](C)NC(=O)[C@](C)(NC(=O)[C@H](CCCNC(=N)N)NC(=O)[C@H](C)NC(=O)[C@H](CO)NC(=O)[C@H](CC(C)C)NC(=O)[C@H](CCC(N)=O)NC(=O)[C@H](C)NC(=O)[C@H](CC(C)C)NC(=O)[C@@H](NC(=O)[C@H](CCCCN)NC(=O)[C@H](CCCNC(=N)N)NC(=O)[C@H](Cc2ccc(O)cc2)NC(=O)[C@H](CO)NC(=O)[C@H](C)NC(=O)[C@@H](NC(=O)[C@H](Cc2ccccc2)NC(=O)[C@@H](NC(=O)[C@H](C)NC(=O)[C@H](CC(=O)O)NC(=O)[C@H](C)NC(=O)[C@H](Cc2ccc(O)cc2)NC)[C@@H](C)CC)[C@@H](C)O)C(C)C)CCCCCCC=CCCC[C@@](C)(C(=O)N[C@@H](CCCNC(=N)N)C(N)=O)NC1=O [SP-32] (H-[NMeY]ADAIFTASYRKVLAQLSAR[R8]ALQDI[Nle][S5]R-NH2; staple 21-28; N-terminus and C-terminus assumed)
7.60 to 8.00 | – | – | – | – | – | – | – | CCCC[C@H](NC(=O)[C@@H](NC(=O)[C@H](CC(=O)O)NC(=O)[C@H](CCC(N)=O)NC(=O)[C@H](CC(C)C)NC(=O)[C@H](CC(C)C)NC(=O)[C@H](CCCCN)NC(=O)[C@H](CCCNC(=N)N)NC(=O)[C@]1(C)CCCC=CCCCCCC[C@@](C)(NC(=O)[C@H](CCCNC(=N)N)NC(=O)[C@H](Cc2ccc(O)cc2)NC(=O)[C@H](CO)NC(=O)[C@H](CC(N)=O)NC(=O)[C@@H](NC(=O)[C@H](Cc2ccccc2)NC(=O)[C@@H](NC(=O)[C@H](C)NC(=O)[C@H](CC(=O)O)NC(=O)[C@@H](C)NC(=O)[C@@H](N)Cc2ccc(O)cc2)[C@@H](C)CC)[C@@H](C)O)C(=O)N[C@@H](C(C)C)C(=O)N[C@@H](CC(C)C)C(=O)NCC(=O)N[C@@H](CCC(N)=O)C(=O)N[C@@H](CC(C)C)C(=O)N[C@@H](CO)C(=O)N1)[C@@H](C)CC)C(=O)N[C@@H](CO)C(=O)N[C@@H](CCCNC(=N)N)C(N)=O [SP-4] (H-Y[dA]DAIFTNSYR[R8]VLGQLS[S5]RKLLQDI[Nle]SR-NH2; staple 12-19)
